The text below walks through data of patent US20240245673A1, “Papain-like protease (PLpro) inhibitors” (Pfizer Inc., priority 2022, published 2024).

The target in one experiment is SARS-CoV-2 Papain like protease (PLpro) (Severe acute respiratory syndrome coronavirus 2 (2019-nCoV) (SARS-CoV-2), UniProt P0DTD1). Kind of experiment: Papain Like Protease (PLpro) biochemical assay with profluorogenic substrate Z-RLRGG-AMC. The following applies: IC50 (μM), SARS-CoV-2 PLpro 6.25 nM, 25 μM Z-RLRGG-AMC substrate, 60 minute reaction.
Take `Cc1cnc(N2CC3CCC(C2)N3)cc1C(=O)NC1(c2cc(-c3cnn(C)c3)nc3ccccc23)CC1` [Example 285, 2-(3,8-diazabicyclo[3.2.1]octan-3-yl)-5-methyl-N-(1-(2-(1-methyl-1H-pyrazol-4-yl)quinolin-4-yl)cyclopropyl)isonicotinamide]: the half-maximal inhibitory concentration (IC50) (usually the concentration at which inhibition is half-maximal) came to 0.003 µM.

Molecule `Cc1cnc(N2CC3CCC(C2)N3C)cc1C(=O)NC1(c2cc(-c3cnn(C)c3)nc3ccccc23)CC1` [Example 287, 5-methyl-N-(1-(2-(1-methyl-1H-pyrazol-4-yl)quinolin-4-yl)cyclopropyl)-2-(8-methyl-3,8-diazabicyclo[3.2.1]octan-3-yl)isonicotinamide] displayed a half-maximal inhibitory concentration (IC50) of 0.002 µM.

Still in this experiment, the particulars now being: SARS-CoV-2 PLpro 6.25 nM, 25 μM Z-RLRGG-AMC substrate, 60 minute reaction; read-out: IC50.
Regarding `CNC(=O)Cc1ccc(C(=O)N[C@H](C)c2cc(-c3cnn(C)c3)nc3ccccc23)c(C)c1` [Example 259, (R)-2-methyl-N-(1-(2-(1-methyl-1H-pyrazol-4-yl)quinolin-4-yl)ethyl)-4-(2-(methylamino)-2-oxoethyl)benzamide], the half-inhibitory concentration (IC50) amounted to 0.147 µM.

For `Cc1ccccc1C(=O)NC(C)c1cc(N(C)CCC(=O)N(C)C)nc2ccccc12` (centres unmarked) [Example 143, N-[1-(2-{[3-(dimethylamino)-3-oxopropyl](methyl)amino}-quinolin-4-yl)ethyl]-2-methylbenzamide], the IC50 was 8.48 µM.

For the molecule `COCC(OCc1cscn1)c1ccc(C(=O)NC2(c3cc(-c4cnn(C)c4)nc4ccccc34)CC2)c(C)c1` (single isomer, unassigned) [Example 324], the half-inhibitory concentration (IC50) was under 0.001 µM. Take `C[C@@H](NC(=O)c1ccccc1CCC(=O)NNC(=O)[C@H]1O[C@@H]1C(=O)O)c1cc(-c2cnn(C)c2)nc2ccccc12` [Example 219, (2S,3S)-3-(2-(3-(2-(((R)-1-(2-(1-methyl-1H-pyrazol-4-yl)quinolin-4-yl)ethyl)carbamoyl)phenyl)propanoyl)hydrazine-1-carbonyl)oxirane-2-carboxylic acid]: the IC50 came to 0.001 µM. Still for that read-out and setting: as for `Cc1ccccc1C(=O)NC(C)c1cc(-c2ccc3c(c2)nnn3C)nc2ccccc12` (centres unmarked) [Example 134], the figure is 0.432 µM; as for `Cc1ccc(C(N)=O)cc1C(=O)NC(C)c1cc(-n2ccnn2)cc2ccccc12` (centres unmarked) [Example 1, N^1-(1-(3-(1H-1,2,3-triazol-1-yl)naphthalen-1-yl)ethyl)-6-methylisophthalamide], 1.79 µM; as for `COC[C@H](OCc1cocn1)c1ccc(C(=O)NC2(c3cc(-c4cnn(C)c4)cc4ncccc34)CC2)c(C)c1` (single isomer, unassigned) [Example 340], 0.002 µM. On to `Cc1cc(C[S+]([O-])Cc2nccn2C)ccc1C(=O)N[C@H](C)c1cc(-c2cnn(C)c2)nc2ccccc12` (stereo partly drawn) [Example 283, 2-methyl-4-((((1-methyl-1H-imidazol-2-yl)methyl)sulfinyl)methyl)-N—((R)-1-(2-(1-methyl-1H-pyrazol-4-yl)quinolin-4-yl)ethyl)benzamide], for which the half-maximal inhibitory concentration (IC50) was 0.005 µM. Same read-out and setting: as for `Cc1ccc(N2CCN(C)CC2)cc1C(=O)NC(C)c1cc(-c2cc(C(=O)O)c[nH]2)cc2ccccc12` (centres unmarked) [Example 216, 5-(4-(1-(2-methyl-5-(4-methylpiperazin-1-yl)benzamido)ethyl)naphthalen-2-yl)-1H-pyrrole-3-carboxylic acid], the figure is 0.012 µM; as for `Cc1ccccc1C(=O)NC(C)c1cc(NCC(=O)N2CCOCC2)nc2ccccc12` (centres unmarked) [Example 146, 2-methyl-N-[1-(2-{[2-(morpholin-4-yl)-2-oxoethyl]amino}-quinolin-4-yl)ethyl]benzamide], 4.5 µM; as for `Cc1ccccc1C(=O)N[C@H](C)c1cc(OCCO)nc2ccccc12` [Example 45, (R)-N-(1-(2-(2-hydroxyethoxy)quinolin-4-yl)ethyl)-2-methylbenzamide], 3.48 µM.

For `Cc1cc(COCc2cocn2)ccc1C(=O)NC1(c2cc(-c3cnn(C)c3)nc3ccccc23)CC1` [Example 344, 2-methyl-N-(1-(2-(1-methyl-1H-pyrazol-4-yl)quinolin-4-yl)cyclopropyl)-4-((oxazol-4-ylmethoxy)methyl)benzamide], the IC50 is under 0.001 µM.

For the molecule `Cc1ccccc1C(=O)NC(C)c1cc(C2CCOCC2)nc2ccccc12` (stereo in doubt) [Example 155, 2-methyl-N-{(1R)-1-[2-(oxan-4-yl)quinolin-4-yl]ethyl}benzamide], the IC50 was determined as 0.581 µM. With `Cc1ccccc1C(=O)NC(C)c1cc(-c2cnn(C(C)(C)C)c2)nc2ccccc12` (centres unmarked) [Example 113, N-{1-[2-(1-tert-butyl-1H-pyrazol-4-yl)quinolin-4-yl]ethyl}-2-methylbenzamide], the half-maximal inhibitory concentration (IC50) came out at 0.79 µM. On to `Cn1cc(-c2cc(C3(NC(=O)c4ccccc4CCC(=O)NNC(=O)/C=C/C(N)=O)CC3)c3ccccc3n2)cn1` [Example 226, (E)-2-(3-(2-(4-amino-4-oxobut-2-enoyl)hydrazineyl)-3-oxopropyl)-N-(1-(2-(1-methyl-1H-pyrazol-4-yl)quinolin-4-yl)cyclopropyl)benzamide], for which the IC50 is 0.017 µM.

Consider `Cc1ccccc1C(=O)N[C@H](C)c1cc(N)nc2ccccc12` [Example 39, (R)-N-(1-(2-aminoquinolin-4-yl)ethyl)-2-methylbenzamide], for which the IC50 is 0.861 µM. On the same count and under the same terms, as for `CCN(CCOC)c1cc(C(C)NC(=O)c2ccccc2C)c2ccccc2n1` (centres unmarked) [Example 149, N-(1-{2-[ethyl(2-methoxyethyl)amino]quinolin-4-yl}ethyl)-2-methylbenzamide], the figure is 2.17 µM; as for `Cc1cc(COCc2cscn2)ccc1C(=O)NC1(c2cc(-c3cnn(CCC(=O)N(C)C)c3)nc3ccccc23)CC1` [Example 362], under 0.001 µM; as for `Cc1ccccc1C(=O)NC(C)c1cc(-c2cn[nH]c2)nc2ccccc12` (centres unmarked) [Example 101, 2-methyl-N-{1-[2-(1H-pyrazol-4-yl)quinolin-4-yl]ethyl}benzamide], 0.198 µM. Same read-out and setting: to `Cc1ccc(CN)cc1C(=O)N[C@H](C)c1cc(-c2cc(C(=O)N(C)C)n(C)c2)nc2ccccc12` [Example 258, (R)-4-(4-(1-(5-(aminomethyl)-2-methylbenzamido)ethyl)quinolin-2-yl)-N,N,1-trimethyl-1H-pyrrole-2-carboxamide] belongs 0.044 µM; to `Cc1cc(COCc2nccn2C)ccc1C(=O)N[C@H](C)c1cc(-c2cnn(C)c2)nc2ccccc12` [Example 291, (R)-2-methyl-4-(((1-methyl-1H-imidazol-2-yl)methoxy)methyl)-N-(1-(2-(1-methyl-1H-pyrazol-4-yl)quinolin-4-yl)ethyl)benzamide], 0.001 µM; to `Cc1cc(C(=O)NC2(c3ncc[nH]3)CC2)ccc1C(=O)N[C@H](C)c1cc(-c2cnn(C)c2)nc2ccccc12` [Example 242], 0.006 µM. Same read-out and setting: to `Cc1ccc(N2CCN(C)CC2=O)cc1C(=O)N[C@H](C)c1cc(-c2cnn(C)c2)nc2ccccc12` [Example 249, (R)-2-methyl-N-(1-(2-(1-methyl-1H-pyrazol-4-yl)quinolin-4-yl)ethyl)-5-(4-methyl-2-oxopiperazin-1-yl)benzamide] belongs 0.733 µM; to `CCOC(=O)[C@H]1O[C@@H]1C(=O)NNC(=O)CCc1ccccc1C(=O)N[C@H](C)c1cc(-c2cnn(C)c2)nc2ccccc12` [Example 227, ethyl (2S,3S)-3-(2-(3-(2-(((R)-1-(2-(1-methyl-1H-pyrazol-4-yl)quinolin-4-yl)ethyl)carbamoyl)phenyl)propanoyl)hydrazine-1-carbonyl)oxirane-2-carboxylate], 0.002 µM; to `Cc1ccc(N2CCN(C)CC2)cc1C(=O)NC1(c2cc(-c3ccc(C(=O)N(C)C)[nH]3)cc3ccccc23)CC1` [Example 292, N,N-dimethyl-5-(4-(1-(2-methyl-5-(4-methylpiperazin-1-yl)benzamido)cyclopropyl)naphthalen-2-yl)-1H-pyrrole-2-carboxamide], under 0.001 µM. Take `Cc1cc(-c2cc(C(C)NC(=O)c3ccccc3C)c3ccccc3n2)c[nH]1` (centres unmarked) [Example 117, 2-methyl-N-{1-[2-(5-methyl-1H-pyrrol-3-yl)quinolin-4-yl]ethyl}benzamide]: the IC50 was 0.412 µM. Turning to `Cc1ccc(CN)cc1C(=O)N[C@H](C)c1cc(-c2cn[nH]c2)nc2ccccc12` [Example 18, (R)-N-(1-(2-(1H-pyrazol-4-yl)quinolin-4-yl)ethyl)-5-(aminomethyl)-2-methylbenzamide], the IC50 is 0.027 µM. The same measure, in the same setting: to `Cc1cc(COCc2cocn2)ccc1C(=O)NC1(c2cc(-c3cnn(C)c3)cc3ncccc23)CC1` [Example 345, 2-methyl-N-(1-(7-(1-methyl-1H-pyrazol-4-yl)quinolin-5-yl)cyclopropyl)-4-((oxazol-4-ylmethoxy)methyl)benzamide] belongs under 0.001 µM; to `Cc1ccccc1C(=O)NC(C)c1cc(CN2CCCC2=O)nc2ccccc12` (stereo in doubt) [Example 156, 2-methyl-N-[(1R)-1-{2-[(2-oxopyrrolidin-1-yl)-methyl]quinolin-4-yl}ethyl]benzamide], 7.22 µM; to `COCCOc1cc([C@@H](C)NC(=O)c2ccccc2C)c2ccccc2n1` [Example 47, (R)-N-(1-(2-(2-methoxyethoxy)quinolin-4-yl)ethyl)-2-methylbenzamide], 3.13 µM. Same read-out and setting: to `Cc1cc(COCc2cscn2)ccc1C(=O)NC1(c2cc(-c3cnn(C)c3)cc3nc(O)ccc23)CC1` [Example 358, N-(1-(2-hydroxy-7-(1-methyl-1H-pyrazol-4-yl)quinolin-5-yl)cyclopropyl)-2-methyl-4-((thiazol-4-ylmethoxy)methyl)benzamide] belongs under 0.001 µM; to `CNc1cc([C@@H](C)NC(=O)c2ccccc2C)c2ccccc2n1` [Example 41, (R)-2-methyl-N-(1-(2-(methylamino)quinolin-4-yl)ethyl)benzamide], 1.01 µM; to `Cc1ccccc1C(=O)NC(C)c1cc(-c2cnn(C)c2C)nc2ccccc12` (centres unmarked) [Example 129, N-{1-[2-(1,5-dimethyl-1H-pyrazol-4-yl)quinolin-4-yl]ethyl}-2-methylbenzamide], 0.666 µM.
